# According to US7803930B2, “Antisense modulation of apolipoprotein B-expression” (Isis Pharmaceuticals, Inc., priority 2002, dated 2010):
# In the oligonucleotide strings, read from the 5' end, every base follows the letter of its sugar. An asterisk marks phosphorothioate; unmarked linkages are phosphodiester. Other units and linkages are bracketed, terminal groups are in braces. A string of capitals states the bases alone. e = 2'-O-(2-methoxyethyl) (MOE); [5mC] = 5-methylcytosine; d = 2'-deoxy (DNA)
# Assays:
# [1] = High fat fed mice (Example 51): total, LDL- and HDL-cholesterol levels; format: in vivo, mouse; conditions: 50 mg/kg i.p. twice weekly
# Method: In a further embodiment of the invention, the inhibition of apolipoprotein B mRNA in mice was compared to liver oligonucleotide concentration, total cholesterol, LDL-cholesterol and HDL-cholesterol. Male C57Bl/6 mice receiving a high fat diet (60% fat) were evaluated over the course of 6 weeks for the effects of treatment with twice weekly intraperitoneal injections of 50 mg/kg ISIS 147764 (SEQ ID NO: 109) or 50 mg/kg of the control oligonucleotide ISIS 141923 (SEQ ID NO: 858). Control animals received saline treatment. Animals were sacrificed after 2 days, 1, 2, 4 and 6 weeks of treatment. Each treatment group at each time point consisted of 8 mice.
# Target expression in liver was measured by real-time PCR as described by other examples herein and is expressed as percent inhibition relative to saline treated mice. Total, LDL- and HDL-cholesterol levels were measured by routine clinical analysis using an Olympus Clinical Analyzer (Olympus America Inc., Melville, N.Y.) and are presented in mg/dL. Results from saline-treated animals are shown for comparison. Intact oligonucleotide in liver tissue was measured by capillary gel electrophoresis and is presented as micrograms of oligonucleotide per gram of tissue.
# The oligonucleotide treatments described in this example were duplicated to investigate the extent to which effects of ISIS 147764 persist following cessation of treatment. Mice were treated as described, and sacrificed 1, 2, 4, 6 and 8 weeks following the cessation of oligonucleotide treatment.
# [2] = Steatosis following long-term treatment (6, 12 and 20 weeks) in high-fat fed mice: histology and liver triglyceride content; format: in vivo, mouse; conditions: high fat fed C57Bl/6 mice, 25 mg/kg i.p. twice weekly
# Method: Quantitation of liver triglyceride content is also used to assess steatosis. Tissue triglyceride levels are measured using a Triglyceride GPO Assay (Sigma-Aldrich, St. Louis, Mo.).
# Male C57Bl/6 mice were treated with twice weekly intraperitoneal injections of 25 mg/kg ISIS 147764 (SEQ ID NO: 109) or 25 mg/kg ISIS 141923 (SEQ ID NO: 858) for 6, 12 and 20 weeks. Saline treated animals served as controls. Each treatment group contained 4 animals. Animals were sacrificed at 6, 12 and 20 weeks and liver tissue was procured for histological analysis and measurement of tissue triglyeride content.
# [3] = High fat fed C57BL/6 mice, 6 week timecourse: serum AST and ALT levels; format: in vivo, mouse; conditions: for ALT levels: 6 weeks (saline control 25 IU/L); for AST levels: 6 weeks (saline control 65 IU/L)
# Method: Male C57BL/6 mice (n=8) receiving a high fat diet (60% kcal fat) were evaluated over the course of 6 weeks for the effects of ISIS 147764 on liver enzyme (AST and ALT) levels. Increased levels of the liver enzymes ALT and AST indicate toxicity and liver damage. Control animals received saline treatment (50 mg/kg). […] AST and ALT levels were measured at 6 weeks.
# apolipoprotein B mRNA = assay: Lean mice, 6 weeks (Example 66): apolipoprotein B mRNA; format: in vivo, mouse
# Method: The accumulation of lipids in liver tissue was also evaluated in lean mice. Male […] mice (Charles River Laboratories (Wilmington, Mass.) at 6 to 7 weeks of age were maintained on a standard rodent diet and were treated twice weekly with intraperitoneal injections of 25 or 50 mg/kg 147764 (SEQ ID NO: 109) or 147483 (SEQ ID NO: 79) for 6 weeks. Saline treated animals served as controls. Each treatment group was comprised of 4 animals. Animals were sacrificed after the 6 week treatment period, at which point liver tissue and serum were collected.
# Apolipoprotein B mRNA levels were measured by real-time PCR as described by other examples herein. The data, shown in Table 51, represent the average of 4 animals and are presented as inhibition relative to saline treated controls.
# [4] = C57BL/6NTac-TgN(APOB100) transgenic mice (Example 47): liver enzyme, cholesterol, LDL-cholesterol and triglyceride levels; format: in vivo, mouse; conditions: C57BL/6NTac-TgN(APOB100) mice, 25 mg/kg
# [5] = Long-term study in lean Cynomolgous monkeys (Example 64): intact oligonucleotide in liver by capillary gel electrophoresis; format: in vivo, Cynomolgous monkey; conditions: for antisense oligonucleotide concentration: liver tissue, one month
# Method: The results from the one month interval of the long term treatment are shown in Table 50 and are normalized to saline-treated animals for mRNA and to untreated baseline values for lipid levels. Total cholesterol, LDL-cholesterol, HDL-cholesterol, LDL particle concentration and triglyceride levels in serum were measured by nuclear magnetic resonance spectroscopy by Liposcience (Raleigh, N.C.). Additionally, the concentration of intact oligonucleotide in liver was measured by capillary gel electrophoresis and is presented as micrograms of oligonucleotide per gram of liver tissue. Each result represents the average of data from 4 animals (2 males and 2 females).
# [6] = system: human apolipoprotein B protein (apolipoprotein B-100 and apolipoprotein B-48); assay: Transgenic mice dosing study (Example 52): immunoblot of human apolipoprotein B protein in serum and liver; format: in vivo, human transgene in mouse
# Method: Apolipoprotein B protein in serum was also assessed by immunoblot analysis using an antibody directed to human apolipoprotein B protein (US Biologicals, Swampscott, Mass.).
# [7] = high fat fed male C57Bl/6 mice, treatment period 1 week
# [8] = high fat fed male C57Bl/6 mice, treatment period 2 weeks
# [9] = high fat fed male C57Bl/6 mice, treatment period 4 weeks
# [10] = high fat fed male C57Bl/6 mice, treatment period 6 weeks
# [11] = high fat fed male C57Bl/6 mice, treatment period 2 days
# [12] = high fat fed mice, 1 week after cessation of dosing
# [13] = high fat fed mice, 2 weeks after cessation of dosing
# [14] = high fat fed mice, 4 weeks after cessation of dosing
# [15] = high fat fed mice, 6 weeks after cessation of dosing
# [16] = high fat fed mice, 8 weeks after cessation of dosing
substance,measurement,setting,value
147764 (eG*eT*e[5mC]*e[5mC]*e[5mC]*dT*dG*dA*dA*dG*dA*dT*dG*dT*d[5mC]*eA*eA*eT*eG*e[5mC]) [compound 147764],HDL-cholesterol,[1]; [7],107 mg/dL
same,LDL-cholesterol,[1]; [7],19 mg/dL
same,Total cholesterol,[1]; [7],128 mg/dL
same,HDL-cholesterol,[1]; [8],105 mg/dL
same,LDL-cholesterol,[1]; [8],14 mg/dL
same,Total cholesterol,[1]; [8],121 mg/dL
same,HDL-cholesterol,[1]; [9],66 mg/dL
same,LDL-cholesterol,[1]; [9],7 mg/dL
same,Total cholesterol,[1]; [9],75 mg/dL
same,HDL-cholesterol,[1]; [10],64 mg/dL
same,LDL-cholesterol,[1]; [10],7 mg/dL
same,Total cholesterol,[1]; [10],73 mg/dL
same,HDL-cholesterol,[1]; [11],76 mg/dL
same,LDL-cholesterol,[1]; [11],7 mg/dL
same,Total cholesterol,[1]; [11],101 mg/dL
same,HDL-cholesterol,[1]; [12],51 mg/dL
same,LDL-cholesterol,[1]; [12],14 mg/dL
same,Total cholesterol,[1]; [12],69 mg/dL
same,HDL-cholesterol,[1]; [13],49 mg/dL
same,LDL-cholesterol,[1]; [13],14 mg/dL
same,Total cholesterol,[1]; [13],67 mg/dL
same,HDL-cholesterol,[1]; [14],79 mg/dL
same,LDL-cholesterol,[1]; [14],18 mg/dL
same,Total cholesterol,[1]; [14],111 mg/dL
same,HDL-cholesterol,[1]; [15],100 mg/dL
same,LDL-cholesterol,[1]; [15],24 mg/dL
same,Total cholesterol,[1]; [15],138 mg/dL
same,HDL-cholesterol,[1]; [16],94 mg/dL
same,LDL-cholesterol,[1]; [16],21 mg/dL
same,Total cholesterol,[1]; [16],135 mg/dL
"GTCCCTGAAGATGTCAATGC (2'-MOE gapmer, further chemistry not given here) [ISIS 147764]",liver tissue triglyceride content vs saline treated animals,"[2]; 6, 12 and 20 weeks",no significant differences
same,steatosis vs saline control animals (histology),[2]; 12 and 20 weeks,reduced
same,ALT levels,[3]; 5 mg/kg,50 IU/L
same,AST levels,[3]; 5 mg/kg,105 IU/L
same,ALT levels,[3]; 25 mg/kg,70 IU/L
same,AST levels,[3]; 25 mg/kg,70 IU/L
same,ALT levels,[3]; 50 mg/kg,100 IU/L
same,AST levels,[3]; 50 mg/kg,80 IU/L
same,% Inhibition apolipoprotein B mRNA,apolipoprotein B mRNA; 25 mg/kg i.p. twice weekly,48%
same,% Inhibition apolipoprotein B mRNA,apolipoprotein B mRNA; 50 mg/kg i.p. twice weekly,77%
same,inhibition of apolipoprotein B mRNA expression,apolipoprotein B mRNA; 25 or 50 mg/kg i.p. twice weekly,in a dose-dependent manner
"ISIS 301012: SEQ ID NO: 247, antisense oligonucleotide targeted to human apolipoprotein B (antisense GCCTCAGTCTGCTTCGCACC; chemistry not given here)",LDL-cholesterol levels,[4]; 2 weeks of treatment,22 mg/dL
same,LDL-cholesterol levels,[4]; 4 weeks of treatment,17 mg/dL
same,antisense oligonucleotide concentration,[5]; intravenous 2 mg/kg,92 µg/g
same,antisense oligonucleotide concentration,[5]; intravenous 4 mg/kg,179 µg/g
same,antisense oligonucleotide concentration,[5]; intravenous 12 mg/kg,550 µg/g
same,antisense oligonucleotide concentration,[5]; subcutaneous 20 mg/kg,855 µg/g
same,accumulation of antisense oligonucleotide in the liver,[5]; one month interval,accumulates in the liver in a dose-dependent manner
same,"expression of human apolipoprotein B, B-100 and B-48 forms, in liver (immunoblot)",[6],reduction
same,"human apolipoprotein B protein in serum, B-100 and B-48 forms (immunoblot)","[6]; 2, 4, 6 and 12 weeks of treatment",lowered
